The source of these data is ChEMBL document CHEMBL5230155, “Recent contributions of quinolines to antimalarial and anticancer drug discovery research” (Eur J Med Chem, 2021).

A value given as a limit tells only on which side of the number the result lay.

Data set [1] has as its system MCF7. In words: Antiproliferative activity against human MCF7 cells. The data set is classed as functional, cell-based. Particulars: Homo sapiens, MCF7.
Data set [2] concerns G-361. In words: Antiproliferative activity against human G-361 cells. The format is functional, cell-based. Particulars: read-out: IC50.
The subject of data set [3] is PC-3. In words: Antiproliferative activity against human PC-3 cells. The data set is classed as functional, cell-based.
Data set [4] deals with Alkaline phosphatase, germ cell type (Homo sapiens, UniProt P10696). In words: Inhibition of human germ cell alkaline phosphatase.
Chain of Alkaline phosphatase, germ cell type (P10696 whole entry): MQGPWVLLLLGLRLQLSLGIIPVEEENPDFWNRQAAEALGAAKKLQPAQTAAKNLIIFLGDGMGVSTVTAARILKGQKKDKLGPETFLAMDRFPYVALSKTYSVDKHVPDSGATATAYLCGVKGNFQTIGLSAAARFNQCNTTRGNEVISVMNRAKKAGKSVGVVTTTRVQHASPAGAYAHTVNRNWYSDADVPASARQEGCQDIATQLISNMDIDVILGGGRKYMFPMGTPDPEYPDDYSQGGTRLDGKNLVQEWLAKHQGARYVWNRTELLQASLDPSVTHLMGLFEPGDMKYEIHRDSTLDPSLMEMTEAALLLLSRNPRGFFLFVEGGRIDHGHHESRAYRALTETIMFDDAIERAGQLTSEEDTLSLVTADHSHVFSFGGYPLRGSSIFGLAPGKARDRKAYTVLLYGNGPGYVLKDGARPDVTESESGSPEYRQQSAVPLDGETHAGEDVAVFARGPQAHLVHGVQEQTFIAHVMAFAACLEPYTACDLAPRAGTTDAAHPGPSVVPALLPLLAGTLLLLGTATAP
The subject of data set [5] is Plasmodium falciparum. Description: Antimalarial activity against CQ-sensitive Plasmodium falciparum 3D7. The format is functional, organism-based.
Data set [6] can be described thus: Cytotoxicity against african green monkey Vero cells. The data set is classed as toxicity, cell-based. Particulars: African green monkey (Chlorocebus sabaeus).
Data set [7] in a line: Selectivity index, ratio of IC50 for African green monkey Vero cells to IC50 for CQ sensitive Plasmodium falciparum 3D7. The format is toxicity. Particulars: read-out: Ratio IC50.
Data set [8] deals with Plasmodium falciparum. In words: Antimalarial activity against CQ-resistant Plasmodium falciparum RKL-9. The format is functional, organism-based.
Data set [9] concerns Hemozoin. Description: Inhibition of beta-hematin formation relative to control. Particulars: concentration not given here.
The target of data set [10] is Epidermal growth factor receptor (Homo sapiens, UniProt P00533).
Chain of Epidermal growth factor receptor (P00533 whole entry): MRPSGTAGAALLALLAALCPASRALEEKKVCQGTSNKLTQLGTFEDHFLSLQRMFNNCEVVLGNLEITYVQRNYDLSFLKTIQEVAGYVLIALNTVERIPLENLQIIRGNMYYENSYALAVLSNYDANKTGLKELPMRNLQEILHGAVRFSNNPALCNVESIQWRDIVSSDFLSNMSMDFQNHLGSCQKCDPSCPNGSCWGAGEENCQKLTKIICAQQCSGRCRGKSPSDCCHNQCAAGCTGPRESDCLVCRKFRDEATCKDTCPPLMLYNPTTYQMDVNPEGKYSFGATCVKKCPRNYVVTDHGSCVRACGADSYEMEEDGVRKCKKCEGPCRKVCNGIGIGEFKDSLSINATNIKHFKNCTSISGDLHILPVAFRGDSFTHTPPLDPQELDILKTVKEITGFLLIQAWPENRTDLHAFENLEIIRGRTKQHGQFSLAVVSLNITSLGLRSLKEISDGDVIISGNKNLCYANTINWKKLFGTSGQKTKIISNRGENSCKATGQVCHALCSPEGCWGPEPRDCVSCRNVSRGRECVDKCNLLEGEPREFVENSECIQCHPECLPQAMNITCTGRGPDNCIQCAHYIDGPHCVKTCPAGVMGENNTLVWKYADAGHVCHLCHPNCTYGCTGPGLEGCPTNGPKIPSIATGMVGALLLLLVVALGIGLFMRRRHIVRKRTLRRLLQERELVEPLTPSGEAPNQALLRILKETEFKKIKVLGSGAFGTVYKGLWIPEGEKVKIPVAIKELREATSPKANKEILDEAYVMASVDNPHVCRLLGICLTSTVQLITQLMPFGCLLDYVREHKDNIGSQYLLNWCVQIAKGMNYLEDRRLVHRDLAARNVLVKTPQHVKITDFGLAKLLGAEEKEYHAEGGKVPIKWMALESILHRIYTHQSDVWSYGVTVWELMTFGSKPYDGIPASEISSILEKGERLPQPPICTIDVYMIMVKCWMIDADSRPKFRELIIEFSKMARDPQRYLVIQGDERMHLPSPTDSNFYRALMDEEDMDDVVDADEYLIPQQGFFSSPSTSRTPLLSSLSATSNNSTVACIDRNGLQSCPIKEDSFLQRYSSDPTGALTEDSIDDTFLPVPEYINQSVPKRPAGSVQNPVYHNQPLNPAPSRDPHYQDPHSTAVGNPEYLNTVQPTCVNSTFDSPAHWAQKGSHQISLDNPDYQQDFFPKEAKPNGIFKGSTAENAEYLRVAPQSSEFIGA
The subject of data set [11] is Plasmodium berghei. In words: Antimalarial activity against liver stage Plasmodium berghei. The format is functional, organism-based.
Data set [12] concerns NCI-H460. Description: Antiproliferative activity against human NCI-H460 cells. The data set is classed as functional, cell-based.
Data set [13] concerns PANC-1. In words: Antiproliferative activity against human PANC-1 cells. The data set is classed as functional, cell-based.
Data set [14] relates to MIA PaCa-2. Description: Antiproliferative activity against human MIA PaCa-2 cells. The format is functional, cell-based.
For data set [15], the system named is HT-29. Description: Antiproliferative activity against human HT-29 cells. The data set is classed as functional, cell-based.
Data set [16] concerns A-375. Description: Antiproliferative activity against human A-375 cells. The data set is classed as functional, cell-based.
The subject of data set [17] is Hep 3B2. In words: Cytotoxicity against human Hep3B cells assessed as relative value at 15 uM after 48 hrs by MTS method. The data set is classed as functional. In general terms: Tetrazolium dyes change colour on reduction, which living cells bring about.
The subject of data set [18] is Plasmodium berghei. Description: Antimalarial activity against Plasmodium berghei ANKA infected in mouse assessed increase in survival time at 20 mg/kg/day, ip for 4 days. The format is functional. To be noted: time 4 day.
The subject of data set [19] is Plasmodium berghei. Description: Antiplasmodial activity against Plasmodium berghei ANKA infected in mouse assessed as reduction in parasitaemia at 20 mg/kg/day, ip administered for 4 days. The format is functional. Also on record: scale not given: the % may be the effect or the level left. Particulars: time 4 day.
Data set [20] has as its system HCT-116. Description: Cytotoxicity against human HCT-116 cells. The format is functional, cell-based.
Data set [21] deals with RPMI-8226. Description: Cytotoxicity against human RPMI-8226 cells. The format is functional, cell-based.
In data set [22] the test system is RPMI-8226. In words: Induction of apoptosis in human RPMI-8226 cells assessed as fold increase in cytochrome c level. The format is functional.
In data set [23] the test system is RPMI-8226. Description: Induction of apoptosis in human RPMI-8226 cells assessed as fold increase in caspase-3 level. The format is functional.

In the case of `COc1ccc2ccc(F)c(CC(=O)N/N=C/c3ccc(C(F)(F)F)cc3)c2n1`, the IC50 in data set [1] and in data set [2] was 2070 nM each time.

As to `Cc1cc2nc(O)cc(C(=O)Nc3nc4ccccc4s3)c2cc1C`, the IC50 is 48 nM in data set [3] and less than 75 nM in data set [4].

On to `O=C(Cn1cc(COc2ccc(Br)cc2)nn1)NCCNc1ccnc2cc(Cl)ccc12`, for which the values for the IC50 in data set [5], in [6] and in [8] were 38.8 nM, more than 5 µM and 2.94 nM, respectively. For the same compound, the selectivity ratio in data set [7] was 714.

`COc1ccc(C(=O)/C=C/c2cc3ccccc3nc2Cl)cc1OC` returned an inhibition in [9] of 61.3%.

In data set [10], `COc1ccc2nc(Cl)c(/C=C/C(=O)c3ccc(C)cc3)cc2c1` had an IC50 of 37.1 nM.

Take `O=C(Nc1nc2ccccc2s1)c1cc(O)nc2ccc(O)cc12`: in data set [4], the IC50 is less than 75 nM.

With `COc1cc(C)c2c(Oc3ccc(F)c(F)c3)c(OC)cc(NC(C)CCON=C(C)C)c2n1` (configuration not stated), the half-maximal inhibitory concentration (IC50) amounted to 380 nM in [5] and 5.4 µM in data set [11].

Turning to `CSc1nc2ccccc2cc1/C=C1/C=C(c2ccccc2)NC1=O`, the IC50 in data set [12], in data set [13], in data set [14], in data set [15] and in data set [16] was 1900 nM throughout.

With `COc1nc2ccccc2cc1/C=C1/C=C(c2ccccc2)NC1=O`, the half-maximal inhibitory concentration (IC50) in data set [12], in data set [13], in data set [14], in [15] and in [16] was 1900 nM each time.

On to `Cc1ccc2cccc(OS(=O)(=O)c3ccc(CBr)cc3)c2n1`, for which the “fold change (FC)” value in data set [17] was determined as 0.25.

Consider `O=S(=O)(Oc1cccc2cccnc12)c1ccc(CBr)cc1`, for which the “fold change (FC)” value in [17] is given as 0.25.

As to `O=C(Cn1cc(COc2ccc(Cl)cc2)nn1)NCCNc1ccnc2cc(Cl)ccc12`, the IC50 is 38.8 nM in data set [5], more than 5 µM in [6] and 75 nM in data set [8]. In addition, the selectivity ratio in data set [7] was found to be 714.

As for `Cc1cc2c(C(=O)Nc3nc4ccccc4s3)cc(O)nc2cc1Cl`, the IC50 in [3] is 18 nM; in data set [4] it was less than 75 nM.

`COc1ccc2nc(Cl)c(/C=C/C(=O)c3ccc(OC)c(OC)c3OC)cc2c1` gave an inhibition in data set [9] of 61.3%.

Compound `COc1ccc2nc(Cl)c(C3CC(c4ccc(C)cc4)=NN3c3nc(C)c(C(=O)Nc4ccccc4)s3)cc2c1` (configuration not stated) registered an IC50 in data set [10] of 42.5 nM.

In data set [11], `COc1cc(NC(C)CCCN)c2ncccc2c1` (configuration not stated) [PRIMAQUINE] displayed an IC50 of 1.1 µM.

For the compound `COc1cc(C)c2c(Oc3cccc(C(F)(F)F)c3)c(OC)cc(NC(C)CCON)c2n1` (configuration not stated), the 50% inhibitory concentration (IC50) is 380 nM in [5] and 5.4 µM in data set [11].

Take `O=C(Cn1cc(COc2ccc(Br)cc2)nn1)NCCCNc1ccnc2cc(Cl)ccc12`: the IC50 in data set [5] was 38.8 nM; in data set [6] it was more than 5 µM; in data set [8], 16 nM. Moreover, in [7], the selectivity ratio is 714.

`COc1nc2ccc(C)cc2cc1Cc1cc(-c2ccccc2)n[nH]c1=O`: the IC50 in data set [12], in [13], in data set [15] and in [16] was 2200 nM throughout.

Take `COc1cc(/C=C/C(=O)c2cccc(Nc3ccnc4cc(Cl)ccc34)c2)cc(OC)c1OC`: the Time in data set [18] was 24.6 days. The Activity in data set [19] was determined as 1.4%.

Take `COc1nc2ccccc2cc1/C=[N+](\[O-])c1ccccc1`: the IC50 in data set [20] and in data set [21] was 450 nM each time. The “fold change (FC)” value in [22] was determined as 4; in [23] it was 12.

With `COc1ccc2ccc(F)c(CC(=O)N/N=C/c3cc(OC)c(OC)c(OC)c3)c2n1`, the IC50 in [1] and in data set [2] was 2070 nM throughout.

On to `O=S(=O)(Oc1c(Br)cc(Br)c2cccnc12)c1cccc2cccnc12`, for which the “fold change (FC)” value in data set [17] amounted to 0.38.

The compound `COc1ccc2nc(Cl)c(C3CC(c4ccc(C)cc4)=NN3c3nc(-c4ccc(F)cc4)cs3)cc2c1` (configuration not stated) displayed an IC50 in [10] of 31.8 nM.

For the compound `COc1ccc(/C=C/C(=O)c2cccc(Nc3ccnc4cc(Cl)ccc34)c2)cc1OC`, the Time in data set [18] was 22.44 days. In [19], the Activity came out at 1.4%.

Compound `COc1cc2c(C(=O)Nc3nc4ccccc4s3)cc(O)nc2cc1Cl` yielded a half-maximal inhibitory concentration (IC50) in data set [4] of less than 75 nM.

As a reminder, the IC50 is the concentration at which inhibition is half-maximal. The term inhibition denotes the percentage by which the read-out fell short of the control.
